Measurements reported in patent US7285392B2, “Methods for identifying active compounds” (Biovitrum AB, priority 2003, dated 2007).

Assays:
[1] = tested on: protein interactions with GHRE DNA probe; test: EMSA with GHRE DNA probe, nuclear extracts of GHR-transfected and non-transfected WRL-68 cells; format: cell-based, human
Experimental: (§1) Cell culture: WRL-68 cells, a human fetal hepatic cell-line, were cultured in EMEM medium with NaHCO3 (Statens Veterinärmedicinska Anstalt), supplemented with 10% fetal bovine serum (FBS), 2% L-Glutamine, 1% Pyruvate and 1% Non essential amino acids (NEA), all from GIBCO. The cells were sub-cultivated twice weekly by trypsination to maintain a cell density of approximately 80%.
Transfection: Cells were transfected with human full-length GH-receptor (pMB1288, 2 μg/μl) by using DOTAP Liposomal Transfection Reagent (Roche), according to manufacturers manual. With this reagent a cationic liposome-mediated transfection method (lipofection) is used. T75 flasks with WRL-68 cells were transfected with 10 μg DNA for each flask. 5 μl (10 μg) DNA was diluted with 250 μl OPTIMEM1 medium (GIBCO) and mixed gently with 75 μl DOTAP reagent diluted in 175 μl OPTIMEM1 medium. The mixture was incubated for 10 minutes and then mixed gently with 10 ml OPTIMEM1 medium. Cells were washed once and then incubated for 4 hours with the DNA/DOTAP transfection mix, which was then changed to fresh culture medium. Cells were re-seeded into new culture dishes the following day.
(§2) Stimulation: Cells were stimulated two days after transfection at a confluence of approximately 80%. […]
(§3) Extraction of nuclear proteins: To extract the proteins from the nuclei, the nuclear pellets were re-suspended in 2×lysis buffer with protease and phosphatase inhibitors (100 mM HEPES, pH 7.6, 300 mM NaCl, 10 mM EDTA (GIBCO), 2% Triton X-100 (Sigma), 0.2 mM PMSF, 0.2 mM sodium orto-vanadate, 2 nM okadaic acid, 1×complete), or EMSA buffer with inhibitors (20 mM Tris pH 8.0, 1.5 mM MgCl2, 0.2 mM EDTA, 25% glycerol, 0.5 mM PMSF, 0.2 mM sodium ortho-vanadate, 2 nM okadaic acid, 1×complete protease inhibitor), depending on whether the samples should also be used in electrophoresis mobility shift assays (EMSA) or not. For an optimal protein extraction, three different methods were evaluated. […] Optimal extraction was evaluated by Western blot and protein concentration determination as described below. […]

[2] = tested on: protein interactions with AP2 DNA probe; test: EMSA with AP2 DNA probe, nuclear extracts of GHR-transfected WRL-68 cells; format: cell-based, human; details: stimulated
Experimental: as §1
(§4) Transfection: Cells were transfected with human full-length GH-receptor (pMB1288, 2 μg/μl) by using DOTAP Liposomal Transfection Reagent (Roche), according to manufacturers manual. With this reagent a cationic liposome-mediated transfection method (lipofection) is used. […]
(§5) Extraction of nuclear proteins: To extract the proteins from the nuclei, the nuclear pellets were re-suspended in 2×lysis buffer with protease and phosphatase inhibitors (100 mM HEPES, pH 7.6, 300 mM NaCl, 10 mM EDTA (GIBCO), 2% Triton X-100 (Sigma), 0.2 mM PMSF, 0.2 mM sodium orto-vanadate, 2 nM okadaic acid, 1×complete), or EMSA buffer with inhibitors (20 mM Tris pH 8.0, 1.5 mM MgCl2, 0.2 mM EDTA, 25% glycerol, 0.5 mM PMSF, 0.2 mM sodium ortho-vanadate, 2 nM okadaic acid, 1×complete protease inhibitor), depending on whether the samples should also be used in electrophoresis mobility shift assays (EMSA) or not. For an optimal protein extraction, three different methods were evaluated. […]

[3] = tested on: protein interactions with OCT1 DNA probe; test: EMSA with OCT1 DNA probe, nuclear extracts of WRL-68 cells; format: cell-based, human; details: stimulated
Experimental: as §1, §4, §5

[4] = tested on: AP1 transcription factor binding to AP1 DNA probe; test: EMSA with AP1 DNA probe (control), nuclear extracts of non-transfected WRL-68 cells; format: cell-based, human; details: stimulated
Experimental: as §1, §2, §3

[5] = tested on: GH-inducible mRNA; test: GH-inducible mRNA level; format: cell-based
[6] = target: T1, GH receptor interaction with other transcription factors (Homo sapiens, UniProt P10912); test: Electrophoretic mobility shift assays, GH-receptor transfected cells (summary); format: cell-based; details: treatment with BVTA
T1 construct: Cells were transfected with human full-length GH-receptor (pMB1288, 2 μg/μl); expressed in transfected cells; host or cells: WRL-68 (human fetal hepatic cell line), plasmid pMB1288
T1 sequence (P10912 19-638): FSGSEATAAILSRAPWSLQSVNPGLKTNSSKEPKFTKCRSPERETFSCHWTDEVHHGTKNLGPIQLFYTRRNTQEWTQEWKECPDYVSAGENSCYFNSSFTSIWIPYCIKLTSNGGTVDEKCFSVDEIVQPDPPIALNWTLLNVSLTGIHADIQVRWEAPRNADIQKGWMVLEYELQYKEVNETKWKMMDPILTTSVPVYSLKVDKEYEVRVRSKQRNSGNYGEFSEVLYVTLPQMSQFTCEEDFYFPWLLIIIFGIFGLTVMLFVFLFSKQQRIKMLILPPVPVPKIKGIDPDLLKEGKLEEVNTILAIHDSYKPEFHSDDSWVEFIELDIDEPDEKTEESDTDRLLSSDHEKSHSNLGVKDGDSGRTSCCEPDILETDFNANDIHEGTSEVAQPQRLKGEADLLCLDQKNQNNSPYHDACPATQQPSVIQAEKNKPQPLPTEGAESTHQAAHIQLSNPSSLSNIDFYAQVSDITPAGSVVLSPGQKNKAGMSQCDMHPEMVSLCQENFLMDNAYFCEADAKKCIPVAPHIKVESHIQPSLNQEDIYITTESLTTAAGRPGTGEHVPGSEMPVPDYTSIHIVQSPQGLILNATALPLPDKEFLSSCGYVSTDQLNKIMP
Experimental: Electrophoretic Mobility Shift Assay: Electrophoretic Mobility Shift Assay (EMSA) is a method used to investigate protein-DNA interactions. A DNA probe with a known sequence is end-labeled with ^33P-ATP and then incubated with nuclear extracts. Proteins that bind specifically to the DNA-probe will reduce the mobility of the complex when separated on a non-denaturing poly acryl-amid gel and a shifted band can be seen. To identify proteins bound to the DNA-probe, an antibody can be added to the nuclear extract before incubation with the DNA-probe. If the antibody recognizes a protein that binds to the DNA, the mobility of the complex will be reduced even further and cause a supershift.

[7] = tested on: protein-DNA binding to GHRE DNA probe; test: EMSA with GHRE DNA probe, HX rat liver nuclear extracts; parameters: species or system Sprague Dawley rat; details: HX rats stimulated with hGH vs control animals
Experimental: (§6) Nuclear and cytosolic fractions were prepared from hypophysectomized Sprague Dawley rat livers (ethical license N176/02). The rats had minipumps implanted at 5 weeks of age for administration of hGH. Control animals were not stimulated and thus completely GH-deficient while GH-animals were stimulated continuously with hGH 0.12 mg/kg/day for five days. Animals were anaesthetized and livers were cut out and placed in ice-cold PBS. Livers were then cut into smaller pieces and transferred to 8 ml ice-cold hypotonic buffer with protease and phosphatase inhibitors and were allowed to swell on ice for 10 minutes. […]
as §5

[8] = tested on: protein-DNA binding to OCT1 DNA probe; test: EMSA with OCT1 DNA probe, HX rat liver nuclear extracts; parameters: species or system Sprague Dawley rat; details: HX rats stimulated with hGH vs control animals
Experimental: as §6, §5

[9] = tested on: protein-DNA interaction with AP2 DNA probe; test: EMSA with AP2 DNA probe, HX rat liver nuclear extracts; parameters: species or system Sprague Dawley rat; details: hGH stimulated animals compared to control animals
Experimental: as §6, §5

Molecule	protein-DNA interaction in top shifted band, GHRE probe ([1]; GHR-transfected WRL-68 cells stimulated with BVTA)	effect on GHRE top weak band ([1]; non-transfected WRL-68 cells, stimulated)	protein-DNA interaction, top specific band, AP2 probe [2]	protein-DNA interaction, top specific band, OCT1 probe [3]	effect on AP1 shifted band [4]	GH-inducible mRNA [5]	interaction of GH receptor with other transcription factors [6]	effect of stimulation on shifted bands, GHRE probe ([1]; both GHR-transfected and non-transfected WRL-68 cells)	protein-DNA binding, GHRE probe, hGH stimulation [7]	protein-DNA binding, OCT1 probe, hGH stimulation [8]	protein-DNA binding, AP2 probe, hGH stimulation [9]
Cc1ccc(S(N)(=O)=O)cc1NC(=O)c1ccc(Br)o1 [BVTA, N-[5-(aminosulfonyl)-2-methylphenyl]-5-bromo-2-furamide]	disrupted	no effect	broke the protein-DNA interaction	decreased	no effects	decrease	down regulated				
hGH: human growth hormone (Genotropin, Pharmacia)			no effects	No effects	no effects			No effect	did not show any differences	did not show any differences	No difference in protein-DNA binding
